The experiment deals with HCV pseudoparticles, genotype 1a HCV E1 and E2 envelope (H77C isolate). Kind of experiment: HCV pseudoparticle infection assay (luciferase reporter, Huh7 cells). Type of experiment: cell-based. Background: In a reporter assay the amount or activity of a reporter protein is the signal.
[1] abbreviates: Hepatitis C virus, Huh-7, 48 h, read-out: EC50 (nM) 1a (H77C), class symbol, HCV pseudoparticles genotype 1a (H77C), luciferase 2 days after infection.
[2] abbreviates: Hepatitis C virus, Huh-7, 48 h, read-out: EC50 (nM) 1a (H77C), numeric value, HCV pseudoparticles genotype 1a (H77C), luciferase 2 days after infection.
[3] abbreviates: class symbol, HCV pseudoparticles genotype 1a (H77C), luciferase 2 days after infection, read-out: EC50 (nM) 1a (H77C).
Where [4] appears, read: numeric value, HCV pseudoparticles genotype 1a (H77C), luciferase 2 days after infection, read-out: EC50 (nM) 1a (H77C).

From patent EP2697230B1, “COMPOUNDS FOR THE TREATMENT OF HEPATITIS C” (priority 2011, dated 2012) come the findings set out here.

Like-named read-outs stand apart in the source and are kept apart here.

One may read the EC50 as the midpoint of the concentration-response curve. For the compound `CC(C)(C)OC(=O)N1CCCNC(=O)c2ccc(cc2)Nc2nc(nc(OCC(F)(F)F)n2)NCc2ccc(cc2)OCCC1` [Example 6017], the EC50 under setting [1] was 0.1 to 100 nM.

Take `CC(C)(C)NC(=O)N1CCCCCCCCNc2nc(nc(OCC(F)(F)F)n2)Nc2ccc(cc2)C(=O)NCCC1` [Example 9008]: the EC50 under setting [1] is 0.1 to 100 nM. Still for that read-out and setting: the figure for `COC(=O)N1CCCOc2ccc(cc2)CNc2nc(nc(OCC(F)(F)F)n2)Nc2ccc(cc2)C(=O)NCC1` [Example 6006] is 0.1 to 100 nM. `O=C1CCCCNC(=O)c2ccc(cc2)Nc2nc(nc(OCC(F)(F)F)n2)NCc2ccc(cc2)OC/C=C/S(=O)(=O)N1` [Example 3012]: the EC50 was 100 to 1000 nM under setting [1] and 275 nM under setting [2]. With `O=C1NCCCN2CCN(CCCNC(=O)c3ccc(cc3)Nc3nc(nc(OCC(F)(F)F)n3)NCc3ccc1cc3)CC2` [Example 0039], the EC50 under setting [1] was 100 to 1000 nM.

On to `CCNC(=O)N1CCCCNC(=O)c2ccc(cc2)Nc2nc(nc(OCC(F)(F)F)n2)NCc2ccc(cc2)OCC1` [Example 4007], for which the EC50 under setting [1] lay in the range of 0.1 to 100 nM.

With `CCOC(=O)N1CCCNC(=O)c2ccc(cc2)Nc2nc(nc(OCC(F)(F)F)n2)NCc2ccc(cc2)OCCC1` [Example 6015], under setting [1], the EC50 fell in the range of 0.1 to 100 nM. As to `O=C1COCC(=O)NCc2cccc(c2)CNc2nc(nc(OCC(F)(F)F)n2)Nc2ccc(cc2)CN1` [Example 0070], the EC50 under setting [1] fell in the range of 0.1 to 100 nM. Regarding `O=C1CCCC(=O)NCc2cccc(c2)CNc2nc(nc(OCC(F)(F)F)n2)Nc2ccc(cc2)CN1` [Example 0062], the EC50 under setting [1] lay in the range of 100 to 1000 nM. For `CCNC(=O)N1CCCNC(=O)c2ccc(cc2)Nc2nc(nc(OCC(F)(F)F)n2)NCc2ccc(cc2)OCCC1` [Example 6012], the EC50 is 0.1 to 100 nM under setting [1] and 6.1 nM under setting [2]. `CC(C)(C)NC(=O)N1CCCCNC(=O)c2ccc(cc2)Nc2nc(nc(OCC(F)(F)F)n2)NCc2ccc(cc2)OCCC1` [Example 6023]: the EC50 under setting [1] lay within 0.1 to 100 nM. Still for that read-out and setting: for `CC(C)OC(=O)N1CCCOc2ccc(cc2)CNc2nc(nc(OCC(F)(F)F)n2)Nc2ccc(cc2)C(=O)NCC(C)(C)C1` [Example 6035] the value was 0.1 to 100 nM; for `COC(=O)N1CCCCCCCCNc2nc(nc(OCC(F)(F)F)n2)Nc2ccc(cc2)C(=O)NCCC1` [Example 9003], 0.1 to 100 nM; for `O=C1CCCCCCCCC(=O)NCc2cccc(c2)CNc2nc(nc(OCC(F)(F)F)n2)Nc2ccc(cc2)CN1` [Example 0065], 100 to 1000 nM. On the same count and under the same terms, the figure for `COC(=O)N1CCCCOc2ccc(cc2)CNc2nc(nc(OCC(F)(F)F)n2)Nc2ccc(cc2)C(=O)NCCC1` [Example 4023] is 0.1 to 100 nM. In the case of `O=C1NCCCOCCCCOCCCNc2nc(nc(OCC(F)(F)F)n2)Nc2ccc1cc2` [Example 0004], the EC50 by setting is: under setting [3], 0.1 to 100 nM; under setting [4], 48.4 nM.

Consider `O=C1NCCCCNC(=O)NCc2ccc(cc2)Nc2nc(nc(OCC(F)(F)F)n2)NCc2ccc(cc2)CN1` [Example 0053], for which the EC50 under setting [1] lay within 100 to 1000 nM. On the same count and under the same terms, the figure for `CN1CCNC(=O)c2ccc(cc2)CNc2nc(nc(OCC(F)(F)F)n2)Nc2ccc(cc2)C(=O)NCC1` [Example 0042] is 100 to 1000 nM.

Consider `CN(C)CCCN1CCCNC(=O)c2ccc(cc2)Nc2nc(nc(OCC(F)(F)F)n2)Nc2ccc(cc2)C1=O` [Example 0023], for which, under setting [1], the EC50 lay within 100 to 1000 nM. Same read-out and setting: the figure for `CC1(C)C(=O)NCc2ccc(cc2)Nc2nc(nc(OCC(F)(F)F)n2)NCc2cccc(c2)CNC1=O` [Example 0072] is 0.1 to 100 nM; for `CC(=O)N1CCCCOc2ccc(cc2)CNc2nc(nc(OCC(F)(F)F)n2)Nc2ccc(cc2)C(=O)NCCC1` [Example 4018] it is 0.1 to 100 nM; for `CCCCN1CCCNC(=O)c2ccc(cc2)Nc2nc(nc(OCC(F)(F)F)n2)NCc2ccc(cc2)OCCC1` [Example 6019] it is 0.1 to 100 nM. The same measure, in the same setting: the figure for `O=C1NCCCNCCCCOc2ccc(cc2)CNc2nc(nc(OCC(F)(F)F)n2)Nc2ccc1cc2` [Example 4017] is 0.1 to 100 nM. On to `O=C1NCCCCCCCCCCNc2nc(nc(OCC(F)(F)F)n2)Nc2ccc1cc2` [Example 0003], for which the EC50 is 100 to 1000 nM under setting [3] and 101 nM under setting [4]. In the case of `CN1CCCOc2ccc(cc2)CNc2nc(nc(OCC(F)(F)F)n2)Nc2ccc(cc2)C(=O)NCC(C)(C)C1` [Example 6040], the EC50 under setting [1] was 0.1 to 100 nM. For the compound `CN1CCCN(C)CCCN(C)C(=O)c2ccc(cc2)Nc2nc(nc(OCC(F)(F)F)n2)NCc2ccc(cc2)C(=O)N(C)CCC1` [Example 0041], the EC50 by setting is: under setting [1], 1000 to 5000 nM; under setting [2], 21600 nM. Take `CCCOC(=O)N1CCCOc2ccc(cc2)CNc2nc(nc(OCC(F)(F)F)n2)Nc2ccc(cc2)C(=O)NCC(C)(C)C1` [Example 6034]: under setting [1], the EC50 was in the range of 0.1 to 100 nM. The same measure, in the same setting: the figure for `CCCNC(=O)N1CCCOc2ccc(cc2)CNc2nc(nc(OCC(F)(F)F)n2)Nc2ccc(cc2)C(=O)NCC(C)(C)C1` [Example 6030] is 0.1 to 100 nM. Still for that read-out and setting: for `CCOC(=O)N1CCCCNC(=O)c2ccc(cc2)Nc2nc(nc(OCC(F)(F)F)n2)NCc2ccc(cc2)OCC1` [Example 4014] the value was 0.1 to 100 nM; for `CCN(CC)CCN1CCNC(=O)c2ccc(cc2)CNc2nc(nc(OCC(F)(F)F)n2)Nc2ccc(cc2)C1=O` [Example 0035], 1000 to 5000 nM.

In the case of `CNC(=O)N1CCCOc2ccc(cc2)CNc2nc(nc(OCC(F)(F)F)n2)Nc2ccc(cc2)C(=O)NCC(C)(C)C1` [Example 6038], the EC50 under setting [1] was in the range of 0.1 to 100 nM. Take `O=C1NCCCCCCCCNc2nc(nc(OCC(F)(F)F)n2)Nc2ccc1cc2` [Example 0002]: under setting [3], the EC50 is 0.1 to 100 nM. For the compound `O=C1NCc2ccc(cc2)Nc2nc(nc(OCC(F)(F)F)n2)NCc2cccc(c2)CNC(=O)OCCOCCOCCO1` [Example 0068], under setting [1], the EC50 lay in the range of 100 to 1000 nM. The same measure, in the same setting: for `O=C1NCCCCCCNC(=O)NCc2ccc(cc2)Nc2nc(nc(OCC(F)(F)F)n2)NCc2ccc(cc2)CN1` [Example 0055] the value was 100 to 1000 nM. For the compound `CCNC(=O)N1CCCCOc2ccc(cc2)CNc2nc(nc(OCC(F)(F)F)n2)Nc2ccc(cc2)C(=O)NCCC1` [Example 4031], under setting [1], the EC50 lay in the range of 0.1 to 100 nM. Still for that read-out and setting: the figure for `O=C1NCCCNCCCOc2ccc(cc2)CNc2nc(nc(OCC(F)(F)F)n2)Nc2ccc1cc2` [Example 6011] is 0.1 to 100 nM; for `CC(C)OC(=O)N1CCCCOc2ccc(cc2)CNc2nc(nc(OCC(F)(F)F)n2)Nc2ccc(cc2)C(=O)NCCC1` [Example 4025] it is 0.1 to 100 nM. Take `O=C1CCCCCCC(=O)NCc2ccc(cc2)Nc2nc(nc(OCC(F)(F)F)n2)NCc2ccc(cc2)CN1` [Example 0063]: under setting [1], the EC50 fell in the range of 100 to 1000 nM. Still for that read-out and setting: the figure for `CC1(C)NC(=O)NCc2ccc(cc2)CNc2nc(nc(OCC(F)(F)F)n2)Nc2ccc(cc2)CNC(=O)NC(C)(C)c2cccc1c2` [Example 0057] is 100 to 1000 nM. Take `CCNC(=O)N1CCCCNC(=O)c2ccc(cc2)Nc2nc(nc(OCC(F)(F)F)n2)NCc2ccc(cc2)OCCC1` [Example 6022]: the EC50 is, setting by setting: under setting [1], 0.1 to 100 nM; under setting [2], 11.8 nM. As for `O=C1NCc2ccc(cc2)CNc2nc(nc(OCC(F)(F)F)n2)Nc2ccc(cc2)CNC(=O)Nc2cccc(c2)N1` [Example 0051], the EC50 under setting [1] was in the range of 100 to 1000 nM. Regarding `O=C1NCc2ccc(cc2)Nc2nc(nc(OCC(F)(F)F)n2)NCc2cccc(c2)CNC(=O)c2ccc1cc2` [Example 0060], the EC50 under setting [1] lay within 100 to 1000 nM. Same read-out and setting: the figure for `CC(C)(C)C(=O)N1CCCCNC(=O)c2ccc(cc2)Nc2nc(nc(OCC(F)(F)F)n2)NCc2ccc(cc2)OCC1` [Example 4005] is 0.1 to 100 nM. On to `CCN1CCCNC(=O)c2ccc(cc2)Nc2nc(nc(OCC(F)(F)F)n2)NCc2ccc(cc2)OCCC1` [Example 6026], for which the EC50 under setting [1] lay in the range of 0.1 to 100 nM. On the same count and under the same terms, the figure for `O=C1NCc2ccc(cc2)Nc2nc(nc(OCC(F)(F)F)n2)NCc2cccc(c2)CNC(=O)c2ccccc21` [Example 0059] is 0.1 to 100 nM; for `CC1(C)CNC(=O)c2ccc(cc2)Nc2nc(nc(OCC(F)(F)F)n2)NCc2ccc(cc2)OCCCN(C(=O)OC(C)(C)C)C1` [Example 6036] it is 0.1 to 100 nM. On to `O=C1NCCCNCCCOc2ccc(cc2)C2(CC2)Nc2nc(nc(OCC(F)(F)F)n2)Nc2ccc1cc2` [Example 5001], for which, under setting [3], the EC50 lay within 0.1 to 100 nM. As for `O=C1COCC(=O)NCc2ccc(cc2)Nc2nc(nc(OCC(F)(F)F)n2)NCc2ccc(cc2)CN1` [Example 0069], the EC50 by setting is: under setting [1], 0.1 to 100 nM; under setting [2], 78.8 nM. Turning to `CC(C)CN1CCCNC(=O)c2ccc(cc2)Nc2nc(nc(OCC(F)(F)F)n2)NCc2ccc(cc2)OCCC1` [Example 6020], the EC50 under setting [1] lay within 0.1 to 100 nM. Same read-out and setting: the figure for `CC(C)NC(=O)N1CCCCNC(=O)c2ccc(cc2)Nc2nc(nc(OCC(F)(F)F)n2)NCc2ccc(cc2)OCC1` [Example 4008] is 0.1 to 100 nM; for `CCN(CC)CCN1CCNC(=O)c2ccc(cc2)Nc2nc(nc(OCC(F)(F)F)n2)Nc2ccc(cc2)C1=O` [Example 0021] it is 100 to 1000 nM. Consider `O=C1NCCNCCNc2nc(nc(OCC(F)(F)F)n2)Nc2ccc1cc2` [Example 0001], for which the EC50 under setting [3] was 1000 to 5000 nM and the EC50 under setting [4] stood at 4200 nM. Regarding `O=C1NCCCCNC(=O)c2ccc(cc2)Nc2nc(nc(OCC(F)(F)F)n2)NCc2ccc1cc2` [Example 0033], the EC50 under setting [1] fell in the range of 100 to 1000 nM. As for `CC1(C)CNCCCOc2ccc(cc2)CNc2nc(nc(OCC(F)(F)F)n2)Nc2ccc(cc2)C(=O)NC1` [Example 6024], the EC50 under setting [1] fell in the range of 0.1 to 100 nM. On to `CC(=O)N1CCCCCCCCNc2nc(nc(OCC(F)(F)F)n2)Nc2ccc(cc2)C(=O)NCCC1` [Example 9009], for which the EC50 under setting [1] was in the range of 0.1 to 100 nM. `O=C1CCCNC(=O)c2ccc(cc2)Nc2nc(nc(OCC(F)(F)F)n2)NCc2ccc(cc2)OCC=CCS(=O)(=O)N1` [Example 3010]: the 50% effective concentration (EC50) runs as follows: under setting [1], 0.1 to 100 nM; under setting [2], 20.3 nM.

With `CN1CCCNC(=O)c2ccc(cc2)Nc2nc(nc(OCC(F)(F)F)n2)Nc2ccc(cc2)C(=O)NCCC1` [Example 0022], the 50% effective concentration (EC50) under setting [1] is 100 to 1000 nM. In the case of `COC(=O)N1CCCOc2ccc(cc2)CNc2nc(nc(OCC(F)(F)F)n2)Nc2ccc(cc2)C(=O)NCC(C)(C)C1` [Example 6032], the EC50 under setting [1] was in the range of 0.1 to 100 nM.
